Laboratory results reported in patent US20190152946A1, “Novel Compounds” (GlaxoSmithKline Intellectual Property Development Limited, priority 2016, published 2019).

Molecular target: T1, GAK (Homo sapiens, UniProt O14976)
T1 construct: endogenous in cells; host or cells: THP-1
T1 sequence (O14976 1-1311): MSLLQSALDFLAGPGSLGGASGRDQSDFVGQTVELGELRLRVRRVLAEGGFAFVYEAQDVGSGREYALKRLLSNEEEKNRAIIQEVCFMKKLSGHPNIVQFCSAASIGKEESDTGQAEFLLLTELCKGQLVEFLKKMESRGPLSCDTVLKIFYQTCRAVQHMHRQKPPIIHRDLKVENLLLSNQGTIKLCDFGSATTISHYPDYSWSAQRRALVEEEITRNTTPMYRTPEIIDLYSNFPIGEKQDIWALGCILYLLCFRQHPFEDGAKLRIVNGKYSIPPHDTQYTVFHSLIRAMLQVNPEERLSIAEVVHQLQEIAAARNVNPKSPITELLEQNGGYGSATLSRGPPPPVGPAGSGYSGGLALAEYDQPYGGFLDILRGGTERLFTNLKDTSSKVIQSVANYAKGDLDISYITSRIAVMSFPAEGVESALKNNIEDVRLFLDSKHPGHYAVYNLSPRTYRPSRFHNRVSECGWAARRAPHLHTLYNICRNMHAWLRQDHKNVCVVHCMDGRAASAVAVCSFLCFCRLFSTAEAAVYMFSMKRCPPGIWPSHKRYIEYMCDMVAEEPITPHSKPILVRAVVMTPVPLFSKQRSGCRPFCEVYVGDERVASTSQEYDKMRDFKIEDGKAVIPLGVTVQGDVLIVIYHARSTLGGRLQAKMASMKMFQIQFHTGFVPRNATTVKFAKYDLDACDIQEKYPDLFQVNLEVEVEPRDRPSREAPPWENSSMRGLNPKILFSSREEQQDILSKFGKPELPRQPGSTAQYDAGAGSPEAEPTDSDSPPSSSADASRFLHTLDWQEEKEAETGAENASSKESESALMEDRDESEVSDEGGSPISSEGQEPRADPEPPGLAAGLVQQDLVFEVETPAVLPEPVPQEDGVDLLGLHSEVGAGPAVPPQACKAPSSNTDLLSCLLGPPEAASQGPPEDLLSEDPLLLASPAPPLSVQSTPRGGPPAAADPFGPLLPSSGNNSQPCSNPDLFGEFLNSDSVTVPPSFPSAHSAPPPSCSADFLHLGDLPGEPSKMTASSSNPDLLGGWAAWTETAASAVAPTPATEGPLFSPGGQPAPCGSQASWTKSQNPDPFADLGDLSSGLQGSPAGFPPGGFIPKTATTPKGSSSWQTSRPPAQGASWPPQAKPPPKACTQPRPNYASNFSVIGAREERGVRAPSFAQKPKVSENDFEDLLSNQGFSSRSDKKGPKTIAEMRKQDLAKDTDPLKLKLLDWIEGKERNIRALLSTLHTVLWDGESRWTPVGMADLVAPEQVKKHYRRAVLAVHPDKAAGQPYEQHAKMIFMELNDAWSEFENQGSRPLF
Test: Expression proteomics in THP-1 cells, GAK level
Assay type: cell-based
Conditions: GAK protein log2 fold change, 24 h, 1.0 μM
Description: THP-1 cells were seeded at a concentration of 3×10^6 cells in T175 flasks with 60 mL growth medium (RPM11640+10% FBS). […] of a 10× compound solution prepared in growth medium (DMSO), IAP PROTAC) was added and the cells were treated for the indicated time points (6 or 24 h) at 37° C., 5% CO2. For harvesting the cells were collected into falcon tubes on ice, centrifuged and washed twice in cold PBS (Life technologies). After the last washing step the supernatant was removed and the pellets were snap-frozen in liquid N2 and stored at −80° C. and lysed in 2% SDS for 3 min at 95° C. in a thermomixer (Thermo Fisher Scientific), followed by digestion of DNA with Benzonase at 37° C. for 1.5 h. Lysate was cleared by centrifugation an protein concentration in supernatant was determined by BCA assay.
Leukemia 25, 89-100 (2011).
Samples were dried in vacuo and resuspended in 0.05% trifluoroacetic acid in water. […]
Reporter ion intensities were read from raw data and multiplied with ion accumulation times (the unit is milliseconds) so as to yield a measure proportional to the number of ions;
Nat Biotech 29, 255-265 (2011). this measure is referred to as ion area Savitski, M. M. et al. Delayed Fragmentation and Optimized Isolation Width Settings for Improvement of Protein Identification and Accuracy of Isobaric Mass Tag Quantification on Orbitrap-Type Mass Spectrometers. […]

CNC(=O)c1ccccc1Nc1nc(Nc2ccc(N3CCN(CCOCCOCCOCCOc4ccc5c(c4)CN(C(=O)[C@@H](NC(=O)[C@H](C)NC)C(C)(C)C)[C@H](C(=O)N[C@@H]4CCCc6ccccc64)C5)CC3)cc2)ncc1Cl [IAP, (S)-7-(2-(2-(2-(2-(4-(4-((5-Chloro-4-((2-(methylcarbamoyl)phenyl)amino)pyrimidin-2-yl)amino)phenyl)piperazin-1-yl)ethoxy)ethoxy)ethoxy)ethoxy)-2-((S)-3,3-dimethyl-2-((S)-2-(methylamino)propanamido)butanoyl)-N-((R)-1,2,3,4-tetrahydronaphthalen-1-yl)-1,2,3,4-tetrahydroisoquinoline-3-carboxamide]
log2fc_IAP_24 h_1.0 μM_n1 (replicate n1): −2.02
log2fc_IAP_24 h_1.0 μM_n2 (replicate n2): −2.39
